Source: patent publication US11058680B2, “Combinations of opioid/TLR4 antagonists and acetaminophen for use in the treatment of emotional pain and insomnia” (Allodynic Threapeutics, LLC, priority 2016, dated 2021)

Legend:
[1] = Migraine open-label pilot study: side effects (AEs present) at each time point; type: in vivo, human
Procedure: The majority of the patients remained in the clinic for observation for 2 hours after dosing. […] Headache pain was assessed on a 4-point scale (0=none; 1=mild; 2=moderate; 3=severe). The assessment of photophobia, phonophobia, nausea, and neck/shoulder pain was assessed as present or absent. The assessment of emotional pain was recorded on a 4-point scale (0=none, 1=mild, 2=moderate, 3=severe). The assessment of difficulty sleeping or falling asleep (insomnia) was assessed on a 4-point scale (0=none, 1=mild, 2=moderate, 3=severe) at baseline, for the night before treatment and for the following nights at 24, and 48 hours. Patients recorded side effects severity at each time point. Patients recorded the time of the first rescue medication dose and all additional headache medications used within 48 hours. Patients were required to stay awake to record their assessments in the first 2 hours, sleeping was permitted thereafter. While asleep, assessments were completed according to patients' best estimation. For data analysis, it was assumed that a migraine attack is a unique patient. Patients were asked to specify (yes or no answer) to whether they experienced emotional pain symptoms such as: hurt feelings, sadness, fear, or anger. Patients who replied positively to having emotional pain were asked to specify the cause into one of the following options: relationship, work/school, money/debt, health, or loss/grief.

[2] = system: patient with lower back and leg pain and emotional pain due to separation from a child; test: Example 12 case study, patient diary
[3] = Ibuprofen 800 mg T.I.D. PRN 2006-2010, Naltrexone 2.25 mg Q.I.D./Clonidine 0.025 mg Q.I.D. 2010-2015, APAP 325 mg Q.I.D. Jun. 29-Jul. 6, 2015, Naltrexone 2.5 mg Q.I.D. to Jul. 8, 2015, Naltrexone 2.25 mg/APAP 325 mg Q.I.D. Jul. 9-Oct. 4, 2015

Question: Which results are given for `O=C1CC[C@@]2(O)[C@H]3Cc4ccc(O)c5c4[C@@]2(CCN3CC2CC2)[C@H]1O5` [naltrexone]?
Answer: AEs present ([1]; 7 min, NTX/APAP 2.25 mg/325 mg, NTX 2.25 mg): 0 (0); AEs present ([1]; 7 min, NTX/APAP 3.25 mg/325 mg, NTX 3.25 mg): 0; AEs present ([1]; 7 min, NTX/APAP 5 mg/325 mg, NTX 5 mg): 1; AEs present ([1]; 7 min, all doses combined): 1 (16); AEs present ([1]; 15 min, NTX/APAP 2.25 mg/325 mg, NTX 2.25 mg): 1 (11); AEs present ([1]; 15 min, NTX/APAP 3.25 mg/325 mg, NTX 3.25 mg): 0; AEs present ([1]; 15 min, NTX/APAP 5 mg/325 mg, NTX 5 mg): 0; AEs present ([1]; 15 min, NTX/APAP […]325 mg, NTX 1.5 mg): 0; AEs present ([1]; 15 min, all doses combined): 2 (13); AEs present ([1]; 30 min, NTX/APAP 2.25 mg/325 mg, NTX 2.25 mg): 1 (11); AEs present ([1]; 30 min, NTX/APAP 3.25 mg/325 mg, NTX 3.25 mg): 2 (66); AEs present ([1]; 30 min, NTX/APAP 5 mg/325 mg, NTX 5 mg): 1 (100); AEs present ([1]; 30 min, NTX/APAP […]325 mg, NTX 1.5 mg): 0 (0); AEs present ([1]; 30 min, all doses combined): 4 (25); AEs present ([1]; 1 h, NTX/APAP 2.25 mg/325 mg, NTX 2.25 mg): 1 (11); AEs present ([1]; 1 h, NTX/APAP 3.25 mg/325 mg, NTX 3.25 mg): 1; AEs present ([1]; 1 h, NTX/APAP 5 mg/325 mg, NTX 5 mg): 1; AEs present ([1]; 1 h, NTX/APAP […]325 mg, NTX 1.5 mg): 0; AEs present ([1]; 1 h, all doses combined): 3 (19); AEs present ([1]; 90 min, NTX/APAP 2.25 mg/325 mg, NTX 2.25 mg): 0 (0); AEs present ([1]; 90 min, NTX/APAP 3.25 mg/325 mg, NTX 3.25 mg): 1 (33); AEs present ([1]; 90 min, NTX/APAP 5 mg/325 mg, NTX 5 mg): 1 (100); AEs present ([1]; 90 min, NTX/APAP […]325 mg, NTX 1.5 mg): 0 (0); AEs present ([1]; 90 min, all doses combined): 2 (13); AEs present ([1]; 2 h, NTX/APAP 2.25 mg/325 mg, NTX 2.25 mg): 0 (0); AEs present ([1]; 2 h, NTX/APAP 3.25 mg/325 mg, NTX 3.25 mg): 1 (33); AEs present ([1]; 2 h, NTX/APAP 5 mg/325 mg, NTX 5 mg): 1; AEs present ([1]; 2 h, NTX/APAP […]325 mg, NTX 1.5 mg): 0 (0); AEs present ([1]; 2 h, combined doses): 2 (13); AEs present ([1]; 3 h, NTX/APAP 2.25 mg/325 mg, NTX 2.25 mg): 0 (0); AEs present ([1]; 3 h, NTX/APAP 3.25 mg/325 mg, NTX 3.25 mg): 1 (33); AEs present ([1]; 3 h, NTX/APAP 5 mg/325 mg, NTX 5 mg): 1; AEs present ([1]; 3 h, NTX/APAP […]325 mg, NTX 1.5 mg): 0; AEs present ([1]; 3 h, combined doses): 2 (13); AEs present ([1]; 4 h, NTX/APAP 2.25 mg/325 mg, NTX 2.25 mg): 0 (0); AEs present ([1]; 4 h, NTX/APAP 3.25 mg/325 mg, NTX 3.25 mg): 1 (33); AEs present ([1]; 4 h, NTX/APAP 5 mg/325 mg, NTX 5 mg): 1; AEs present ([1]; 4 h, NTX/APAP […]325 mg, NTX 1.5 mg): 0; AEs present ([1]; 4 h, combined doses): 2 (13); AEs present ([1]; 6 h, NTX/APAP 2.25 mg/325 mg, NTX 2.25 mg): 0 (0); AEs present ([1]; 6 h, NTX/APAP 3.25 mg/325 mg, NTX 3.25 mg): 1 (33); AEs present ([1]; 6 h, NTX/APAP 5 mg/325 mg, NTX 5 mg): 1; AEs present ([1]; 6 h, NTX/APAP […]325 mg, NTX 1.5 mg): 0; AEs present ([1]; 6 h, combined doses): 2 (13); AEs present ([1]; 12 h, NTX/APAP 2.25 mg/325 mg, NTX 2.25 mg): 0 (0); AEs present ([1]; 12 h, NTX/APAP 3.25 mg/325 mg, NTX 3.25 mg): 1 (33); AEs present ([1]; 12 h, NTX/APAP 5 mg/325 mg, NTX 5 mg): 1; AEs present ([1]; 12 h, NTX/APAP […]325 mg, NTX 1.5 mg): 0; AEs present ([1]; 12 h, combined doses): 2 (13); AEs present ([1]; 24 h, NTX/APAP 2.25 mg/325 mg, NTX 2.25 mg): 0; AEs present ([1]; 24 h, NTX/APAP 3.25 mg/325 mg, NTX 3.25 mg): 1 (33); AEs present ([1]; 24 h, NTX/APAP 5 mg/325 mg, NTX 5 mg): 1; AEs present ([1]; 24 h, NTX/APAP […]325 mg, NTX 1.5 mg): 0; AEs present ([1]; 24 h, combined doses): 2 (13); AEs present ([1]; 48 h, NTX/APAP 2.25 mg/325 mg, NTX 2.25 mg): 0 (0); AEs present ([1]; 48 h, NTX/APAP 3.25 mg/325 mg, NTX 3.25 mg): 1 (33); AEs present ([1]; 48 h, NTX/APAP 5 mg/325 mg, NTX 5 mg): 0; AEs present ([1]; 48 h, NTX/APAP […]325 mg, NTX 1.5 mg): 0; AEs present ([1]; 48 h, combined doses): 1; API, average pain intensity (0-10 NRS) [2, 3]: 4; Insomnia (0-10 NRS) [2, 3]: 6.5; PRSI, Pain Related Sleep Interference (0-10 NRS) [2, 3]: 5.5; WEP, Worst Emotional Pain (0-10 NRS) [2, 3]: 5.5; WPI, Worst Pain Intensity (0-10 NRS) [2, 3]: 5; PGIC (1-7 Likert) ([2]; Naltrexone 2.25 mg Q.I.D./Clonidine 0.025 mg Q.I.D. 2010-2015, APAP 325 mg Q.I.D. Jun. 29-Jul. 6, 2015, Naltrexone 2.5 mg Q.I.D. to Jul. 8, 2015, Naltrexone 2.25 mg/APAP 325 mg Q.I.D. Jul. 9-Oct. 4, 2015): 6; emotional pain due to separation from child (patient report) ([2]; naltrexone/clonidine, acetaminophen 325 mg four times daily 5 days, naltrexone alone 12 days, naltrexone 2.25 mg and acetaminophen 325 mg four times daily almost three months): same level of emotional pain
